pEC50, pKi: −log10 of the molar value. Entries after “also recorded” stand apart in the source; their conditions may differ.
Assays:
[1] = system: mice; assay: Conditioned place preference; assay type: in vivo, mouse; conditions: morphine 10 mg/kg, PZM21 20 mg/kg, TRV130 1.2 mg/kg
[2] = system: mice; assay: Formalin injection nociception assay; assay type: in vivo, mouse; conditions: morphine 10 mg/kg, PZM21 40 mg/kg
[3] = system: C57BL/6J mice; assay: Hotplate assay subcategorized into affective and reflexive responses; assay type: in vivo, mouse; conditions: for analgesia on affective versus reflexive component of pain: morphine 10 mg/kg, PZM21 20 mg/kg
[4] = target: T1, κOR (Homo sapiens, UniProt P41145); assay: Gi/o Glosensor assay at κOR; assay type: cell-based
[5] = target: T2, human μOR (Homo sapiens, UniProt P35372); assay: β-arrestin-2 recruitment by BRET in HEK-293T cells; assay type: cell-based
[6] = target: T2, human μOR; assay: Receptor internalization, PathHunter GPCR internalization assay in U2OS cells; assay type: cell-based
[7] = system: mice; assay: Whole-body mouse plethysmography; assay type: in vivo; conditions: equi-analgesic doses: PZM21 40 mg/kg, TRV130 1.2 mg/kg, morphine 10 mg/kg
[8] = system: C57BL/6J mice; assay: Mouse hotplate analgesia assay; conditions: 15 min after the highest dose tested (40 mg/kg), subcutaneous
[9] = system: Oprm1−/− mice; assay: Hotplate assay in μOR knockout mice; assay type: in vivo, mouse; conditions: morphine 10 mg/kg, PZM21 20 mg/kg, 30 min
[10] = target: SSTR4 (Homo sapiens, UniProt P31391); assay: Gi/o Glosensor assay measuring SSTR4 activation; assay type: cell-based
[11] = target: nociceptin receptor (Homo sapiens, UniProt P41146); assay: Gi/o Glosensor assay at nociceptin receptor; assay type: cell-based
[12] = system: mice; assay: Catalepsy bar test; assay type: in vivo, mouse; conditions: PZM21 20 mg/kg, morphine 10 mg/kg
[13] = system: 320 non-olfactory GPCRs; assay: PRESTO-Tango GPCRome β-arrestin recruitment screen; assay type: cell-based; conditions: 10 μM screen, hits re-tested in full dose–response
[14] = Pharmacokinetics of PZM21, serum and brain levels; assay type: in vivo, mouse; conditions: 20 mg/kg subcutaneous, mice
[15] = target: T3, δOR (Homo sapiens, UniProt P41143); assay: Gi/o Glosensor assay at δOR; assay type: cell-based
[16] = system: mice; assay: Accumulated faecal boli quantification; assay type: in vivo, mouse; conditions: morphine 10 mg/kg, PZM21 20 mg/kg
[17] = Metabolism in mouse liver microsomes; assay type: in vitro ADME; conditions: over one hour, 80 μM
[18] = target: T1, κOR; assay: Radioligand binding at κOR; conditions: read-out: κOR Ki
[19] = target: T3, δOR; assay: Radioligand binding at δOR; conditions: read-out: δOR Ki
[20] = system: mice; assay: Open field locomotor response; assay type: in vivo, mouse; conditions: morphine 10 mg/kg, PZM21 20 mg/kg
[21] = system: C57BL/6J mice; assay: Mouse tail-flick assay; conditions: in vivo
[22] = target: T2, human μOR; assay: BRET-based; assay type: cell-based; conditions: read-out: EC50 in CAMYEL-based Gi/o signalling assay

T3 sequence (P41143 whole entry): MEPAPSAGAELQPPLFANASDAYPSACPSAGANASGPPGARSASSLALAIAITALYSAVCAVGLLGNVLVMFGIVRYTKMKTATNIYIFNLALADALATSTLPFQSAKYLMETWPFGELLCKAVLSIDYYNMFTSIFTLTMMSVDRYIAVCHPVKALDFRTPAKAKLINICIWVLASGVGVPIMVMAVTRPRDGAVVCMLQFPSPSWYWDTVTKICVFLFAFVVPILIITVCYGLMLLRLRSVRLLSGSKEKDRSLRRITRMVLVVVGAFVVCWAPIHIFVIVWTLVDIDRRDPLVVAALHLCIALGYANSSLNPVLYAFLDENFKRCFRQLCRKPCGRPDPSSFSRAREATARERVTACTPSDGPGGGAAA
T1 sequence (P41145 whole entry): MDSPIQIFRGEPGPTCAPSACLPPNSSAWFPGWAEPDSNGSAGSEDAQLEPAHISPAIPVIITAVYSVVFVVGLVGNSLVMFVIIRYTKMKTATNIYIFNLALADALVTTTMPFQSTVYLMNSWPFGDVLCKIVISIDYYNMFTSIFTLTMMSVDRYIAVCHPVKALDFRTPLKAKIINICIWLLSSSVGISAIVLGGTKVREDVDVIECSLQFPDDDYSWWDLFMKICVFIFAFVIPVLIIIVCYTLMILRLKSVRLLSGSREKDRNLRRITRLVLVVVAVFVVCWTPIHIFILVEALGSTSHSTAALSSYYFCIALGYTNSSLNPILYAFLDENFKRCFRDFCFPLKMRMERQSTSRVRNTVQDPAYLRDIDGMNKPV
T2 sequence (P35372 whole entry): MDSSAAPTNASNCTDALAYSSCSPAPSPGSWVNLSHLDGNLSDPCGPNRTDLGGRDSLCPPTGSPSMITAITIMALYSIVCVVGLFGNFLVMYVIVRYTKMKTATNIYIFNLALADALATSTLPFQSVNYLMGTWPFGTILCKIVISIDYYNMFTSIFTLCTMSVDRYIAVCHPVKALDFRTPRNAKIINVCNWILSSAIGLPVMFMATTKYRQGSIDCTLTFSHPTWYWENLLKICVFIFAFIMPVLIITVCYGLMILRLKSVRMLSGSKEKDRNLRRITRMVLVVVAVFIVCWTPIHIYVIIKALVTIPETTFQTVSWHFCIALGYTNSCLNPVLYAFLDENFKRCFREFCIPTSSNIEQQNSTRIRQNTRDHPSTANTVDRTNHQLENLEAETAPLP
Chain of nociceptin receptor (P41146 whole entry, species assumed): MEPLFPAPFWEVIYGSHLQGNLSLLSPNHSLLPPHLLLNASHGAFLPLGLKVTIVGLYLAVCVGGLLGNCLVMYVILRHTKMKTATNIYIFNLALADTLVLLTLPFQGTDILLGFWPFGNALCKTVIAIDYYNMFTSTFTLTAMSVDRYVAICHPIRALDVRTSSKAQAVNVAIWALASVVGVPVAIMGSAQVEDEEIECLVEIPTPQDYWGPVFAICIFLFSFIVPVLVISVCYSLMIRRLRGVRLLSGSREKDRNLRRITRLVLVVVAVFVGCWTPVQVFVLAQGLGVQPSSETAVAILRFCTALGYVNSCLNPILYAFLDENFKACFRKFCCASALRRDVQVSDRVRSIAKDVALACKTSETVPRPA
Chain of SSTR4 (P31391 whole entry, species assumed): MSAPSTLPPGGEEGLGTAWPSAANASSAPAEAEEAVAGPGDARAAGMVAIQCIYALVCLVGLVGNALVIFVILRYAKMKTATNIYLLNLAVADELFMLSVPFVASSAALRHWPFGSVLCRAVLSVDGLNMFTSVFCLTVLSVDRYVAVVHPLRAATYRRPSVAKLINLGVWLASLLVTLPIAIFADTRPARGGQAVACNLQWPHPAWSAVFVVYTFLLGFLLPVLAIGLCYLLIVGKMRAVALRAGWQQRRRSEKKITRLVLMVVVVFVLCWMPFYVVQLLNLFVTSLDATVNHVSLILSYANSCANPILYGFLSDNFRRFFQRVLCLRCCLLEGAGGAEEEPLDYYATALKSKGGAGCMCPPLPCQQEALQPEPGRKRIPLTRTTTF

CN1CC[C@]23c4c5ccc(O)c4O[C@H]2[C@@H](O)C=C[C@H]3[C@H]1C5 [morphine, reference compound]
conditioned place preference [1]: Place preference is induced
analgesia in formalin injection nociception assay [2]: sustained analgesia
analgesia on affective versus reflexive component of pain [3]: induces changes in both behaviours

COC(=O)[C@@H]1C[C@H](OC(=O)c2ccccc2)C(=O)[C@H]2[C@@]1(C)CC[C@H]1C(=O)O[C@H](c3ccoc3)C[C@]21C [Herkinorin, herkinorin]
κOR agonist activity (in words) [4]: potent agonists of the κOR
arrestin recruitment in BRET assay in the absence of GRK2 overexpression [5]: robustly recruits arrestin

COc1ccsc1CNCC[C@@]1(c2ccccn2)CCOC2(CCCC2)C1 [TRV130]
μOR internalization [6]: much decreased receptor internalization versus DAMGO and even morphine
effect on respiration frequency [7]: significantly depresses respiration at 15 min
κOR agonist activity (in words) [4]: potent agonists of the κOR
conditioned place preference [1]: not significant relative to vehicle

C[C@@H](Cc1ccsc1)NC(=O)NC[C@H](Cc1ccc(O)cc1)N(C)C [PZM21]
per cent maximal possible effect (% MPE), hotplate [8]: 87%
analgesic response in hotplate assay in μOR knockout mice [9]: completely ablates the observed analgesic response
SSTR4 activation, cAMP inhibition [10]: does not show a dose-dependent change in cAMP inhibition
nociceptin receptor agonist activity (in words) [11]: no detectable κOR or nociceptin receptor agonist activity
cataleptic effect [12]: minimal cataleptic effect compared to morphine
agonism at other GPCRs [13]: no potent activity was confirmed with a full dose–response experiment
peak level in brain tissue [14]: 197 ng per g
concomitant serum concentration ([14]; at brain peak): 1,253 ng/ml
δOR Gi/o (Glosensor) Emax [15]: 78%
pEC50 ([15]; read-out: δOR Gi/o (Glosensor) EC50): 5.72
constipating effect (accumulated faecal boli) [16]: constipating effect is substantially less than morphine
metabolism by mouse liver microsomes [17]: 8%
pKi [18]: 7.74
pKi [19]: 6.30
effect on locomotion in open-field assay [20]: no apparent effect on locomotion versus vehicle
effect on respiration frequency [7]: almost undistinguishable from vehicle
κOR agonist activity (in words) [4]: no detectable κOR or nociceptin receptor agonist activity
conditioned place preference [1]: does not induce a conditioned place preference response
analgesic effect in tail-flick assay [21]: no analgesic effect
analgesia in formalin injection nociception assay [2]: active in a formalin injection nociception assay
duration of analgesia ([3]; hotplate): up to 180 min
analgesia on affective versus reflexive component of pain [3]: solely confers analgesia to the affective component of pain; also recorded: only modulates the attending (affective) component

CN(C)[C@H](CNC(=O)NCCc1ccccc1)Cc1ccc(O)cc1 [PZM22]
pEC50 [22]: 8.74
